# Experiments:
# Type in all cases: in vivo
# [1] = system: Aster Leafhopper [Macrosteles fascifrens (Stal)]; test: Aster leafhopper test (LH); conditions: adults/nymphs, 48 hours, percent in solution
# [2] = system: Cabbage Looper [Trichoplusia ni (Hubner)]; test: Cabbage looper test (CL); conditions: second-instar larvae, 3-5 days, percent in solution
# [3] = system: Tobacco Budworm [Heliothis virescens (Fabricius)] eggs; test: Tobacco budworm egg test (TBW-E); conditions: percent in solution
# [4] = system: Beet Armyworm (Spodoptera exigua); test: Beet armyworm test (BAW); conditions: second-instar larvae, five days, percent in solution
# Experimental: (§1) The compounds in Tables 1 and 2 above were tested for insecticidal activity using the following testing procedures. LC50 values, based on the results of these tests and calculated according to dosage-mortality curves, are expressed in Table 3.
# Beet Armyworm (Spodoptera exigua)
# Test compounds were diluted in a 50-50 acetone-water solution. Young leaves of sugar beets (Beta vulgaris) were immersed in the test solutions for 2-3 seconds and placed on a wire screen to dry. The dried leaves were placed in petri dishes containing a moistened filter paper and infested with five second-instar beet armyworm larvae. The dishes were placed in a high humidity chamber. Mortality of the larvae was recorded five days later. Test concentrations ranged from 0.1% downward. The LC-50 values are expressed below in Table 3 under the heading "BAW" in terms of percent of the test compound in solution.
# [5] = system: Housefly [Musca domestica]; test: Housefly insecticidal test (HF); conditions: per 25 female houseflies, 48 hours
# [6] = system: Maize weevil [Sitophilus Zeamais (Motschulsky)]; test: Maize weevil test (MW); conditions: adult weevils, treated corn seeds, 48 hours, percent in solution
# Summary of the method: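 Adult weevils (10) were placed with four corn seeds that had been dipped 2-3 s in compound dissolved in 50:50 acetone:water, then dried, and held at about 25° C. Mortality was scored at 48 h. LC50 was taken from dosage-mortality curves and expressed as percent compound in solution, from a 0.01% top concentration.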
# [7] = system: Tobacco Budworm [Heliothis virescens (Fabricius)]; test: Tobacco budworm contact test (TBW-C); conditions: second-instar larvae, 5 days, percent in solution
# Experimental: as §1
# Tobacco Budworm [Heliothis virescens (Fabricius)]
# (a) Contact: Test compounds were diluted in a 50-50 acetonewater solution. Cotton (Gossypium sp.) cotyledons were immersed in the test solutions for 2-3 seconds and placed on a wire screen to dry. The dried leaves were placed in petri dishes containing a moistened piece of filter paper and infested with 5 second-instar tobacco budworm larvae. The dishes were placed in a high humidity chamber for 5 days, and percent mortality of the larvae recorded. Test concentrations ranged from 0.1% downward. The LC-50 values are expressed below in Table 3 under the heading "TBW-C" in terms of percent of the test compound in the solution.
Structure (SMILES),LC50 LH [1] [%],LC50 CL [2] [%],LC50 TBW E [3] [%],LC50 BAW [4] [%],LC50 HF [5] [µg],LC50 MW [6] [%],LC50 TBW C [7] [%]
CC(C)C(=Nc1cccc(Cl)c1)OCc1cccc(Oc2ccccc2)c1 [Compound 7],0.0002,0.006,0.009,0.006,8,,
CC(C)C(=Nc1ccc(Cl)c(Cl)c1)OCc1cccc(Oc2ccccc2)c1 [Compound 14],0.001,0.004,,0.005,40,0.01,
CC(C)C(=Nc1ccc(Cl)cc1)OCc1ccc(F)c(Oc2ccccc2)c1 [Compound 23],,0.0005,0.017,0.001,5,,
Clc1ccccc1N=C(OCc1cccc(Oc2ccccc2)c1)C(Cl)Cl [Compound 34],,0.015,> 0.1,0.015,> 100,,0.01
CC(C)C(=Nc1ccc(F)cc1)OCc1cccc(Oc2ccccc2)c1 [Compound 46],0.002,0.003,0.016,0.006,7,,
CC(C)C(=Nc1ccc(F)cc1)OCc1ccc(F)c(Oc2ccccc2)c1 [Compound 53],,0.0005,0.02,0.003,2,,0.0025
CC(C)C(=Nc1cccc(C(F)(F)F)c1)OCc1cccc(Oc2ccccc2)c1 [Compound 67],0.00027,0.001,0.01,0.006,15,,
Cc1c(Cl)cccc1N=C(OCc1cccc(Oc2ccccc2)c1)C(Cl)Cl [Compound 97],,0.002,0.04,0.01,10,,0.004
CCC(C)C(=Nc1ccc(F)c(Cl)c1)OCc1cccc(Oc2ccccc2)c1 (stereo not shown) [Compound 122],> 0.05,0.0007,0.05,0.01,37,,
Cc1ccc(N=C(OCc2cccc(Oc3ccccc3)c2)C(Cl)Cl)cc1 [Compound 139],,0.015,0.05,0.007,4.2,,0.005
O=[N+]([O-])c1ccc(N=C(OCc2cccc(Oc3ccccc3)c2)C(Cl)Cl)cc1 [Compound 173],,0.02,> 0.1,> 0.1,18,,> 0.1
O=[N+]([O-])c1cccc(N=C(OCc2cccc(Oc3ccccc3)c2)C(Cl)Cl)c1 [Compound 174],,0.03,> 0.1,0.1,17,,
CC(C)C(=Nc1ccc(F)c(Cl)c1)OCc1cccc(Oc2ccc(C#N)cc2)c1 [Compound 196],> 0.05,0.0006,> 0.1,,17,> 0.01,0.001
CC(C)C(=Nc1cccc(C(F)(F)F)c1)OCc1cccc(Oc2ccc(F)cc2)c1 [Compound 202],0.0003,0.00024,> 0.1,,18,> 0.01,0.0007
CC(C)C(=Nc1ccc(F)cc1F)OCc1cccc(Oc2ccc(F)cc2)c1 [Compound 209],0.001,0.0007,0.1,,17,> 0.01,0.005
CC(C)C(=Nc1ccc(Br)cc1)OCc1cccc(Oc2ccc(F)cc2)c1 [Compound 226],0.002,0.0005,0.1,,16,0.009,0.001

Structure (SMILES),LC50 LH [1] [%],LC50 CL [2] [%],LC50 TBW E [3] [%],LC50 BAW [4] [%],LC50 HF [5] [µg],LC50 MW [6] [%],LC50 TBW C [7] [%]
CC(C)C(=Nc1ccc(I)cc1)OCc1cccc(Oc2ccc(F)cc2)c1 [Compound 234],0.003,0.00045,0.09,,38,> 0.01,0.0013
CC(C)C(=Nc1ccc(F)c(Cl)c1)OCc1cccc(Oc2ccc(Br)cc2)c1 [Compound 238],> 0.05,0.0002,0.05,,25,> 0.01,0.0004
CC(C)C(=Nc1ccc(F)c(Br)c1)OCc1cccc(Oc2ccc(F)cc2)c1 [Compound 253],0.003,0.00013,> 0.1,,10,> 0.01,0.0005
CC(C)C(=Nc1ccc(Br)c(F)c1)OCc1ccc(F)c(Oc2ccc(F)cc2)c1 [Compound 282],,0.00007,0.02,0.0025,16,0.008,0.0007
CC(C)C(=Nc1ccc2c(c1)OC(C)(C)O2)OCc1ccc(F)c(Oc2ccc(F)cc2)c1 [Compound 283],,0.00009,0.016,0.0013,23,> 0.01,0.0009
CC(C)C(=Nc1ccc(F)c(C(F)(F)F)c1)OCc1ccc(F)c(Oc2ccc(Cl)cc2)c1 [Compound 297],0.0001,0.00027,0.025,,23,0.0071,0.00075
CC(C)C(=Nc1ccc(F)c(I)c1)OCc1ccc(F)c(Oc2ccc(Cl)cc2)c1 [Compound 326],,0.00015,0.03,0.004,25,,0.0005
CC(C)C(=Nc1ccc(F)c(Cl)c1F)OCc1cccc(Oc2ccccc2)c1 [Compound 332],,0.00045,0.015,0.0012,7,,0.00075
CC(C)C(=Nc1ccc(F)c(Cl)c1)OCc1cccc(Oc2ccccc2)n1 [Compound 462],0.001,0.001,0.04,,7,> 0.05,0.0025
CC(C)C(=Nc1ccc(F)c(Cl)c1)OCc1cccc(Oc2ccc(Cl)cc2)n1 [Compound 463],0.0003,0.00009,0.0075,0.0024,8,0.01,
CC(C)C(=Nc1ccc(F)c(Cl)c1F)OCc1cccc(Oc2ccc(Cl)cc2)n1 [Compound 500],,0.00009,0.02,0.002,16,,0.00075
C#CCc1c(F)c(F)c(COC(=Nc2ccc(F)c(Cl)c2)C(C)C)c(F)c1F [Compound 520],0.0003,> 0.1,> 0.1,,5.5,0.0042,0.00075
CC(C)C(=Nc1ccc(F)c(Cl)c1F)OCc1cccc(Oc2ccc(F)cc2)n1 [Compound 521],0.05,0.00005,> 0.1,,7.5,0.01,0.0005
CC(C)C(=Nc1ccc(Cl)c(Cl)c1)OCc1cccc(Oc2ccc(Cl)cc2)n1 [Compound 523],> 0.05,0.00015,> 0.1,,22,> 0.01,0.0002
CC(C)C(=Nc1ccc(C(F)(F)F)cc1)OCc1cccc(Oc2ccc(Cl)cc2)n1 [Compound 530],0.05,0.00027,0.005,,9.8,> 0.01,0.00005
CC(C)C(=Nc1ccc(F)c(Cl)c1)OCc1cccc(Oc2ccc(F)c(F)c2)n1 [Compound 531],> 0.05,> 0.1,> 0.1,,5,> 0.01,0.00037

# Reference: patent US5089623A, “Certain imidate insecticides” (Imperial Chemical Industries Plc, priority 1990, dated 1992)
